According to ChEMBL document CHEMBL1159183, “Non-peptide itam mimics as ZAP-70 antagonists” (Bioorg Med Chem Lett, 1997):

Assays:
[1] = target: T1, Tyrosine-protein kinase ZAP-70 (Homo sapiens, UniProt P43403); test: Antagonistic activity against SH2 domain of Zeta-chain (TCR) associated protein kinase, ZAP-70; type: functional
T1 sequence (P43403 whole entry): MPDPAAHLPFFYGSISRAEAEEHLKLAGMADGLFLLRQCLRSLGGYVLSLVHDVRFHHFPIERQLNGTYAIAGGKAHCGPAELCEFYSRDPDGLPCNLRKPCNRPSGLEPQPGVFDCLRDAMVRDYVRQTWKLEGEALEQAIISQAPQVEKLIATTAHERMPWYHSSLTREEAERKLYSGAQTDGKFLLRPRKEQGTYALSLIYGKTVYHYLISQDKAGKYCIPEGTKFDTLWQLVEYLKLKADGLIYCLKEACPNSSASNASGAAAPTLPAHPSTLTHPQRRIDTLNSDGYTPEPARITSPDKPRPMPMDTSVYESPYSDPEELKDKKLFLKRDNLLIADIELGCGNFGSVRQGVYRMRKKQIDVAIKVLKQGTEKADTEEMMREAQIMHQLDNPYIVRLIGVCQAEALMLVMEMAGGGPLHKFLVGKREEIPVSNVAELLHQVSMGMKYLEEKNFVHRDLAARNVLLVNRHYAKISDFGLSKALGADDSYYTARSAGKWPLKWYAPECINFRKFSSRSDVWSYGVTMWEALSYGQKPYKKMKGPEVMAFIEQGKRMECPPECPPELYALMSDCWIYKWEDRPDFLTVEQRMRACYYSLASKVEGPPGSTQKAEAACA

Jurkat = test: Cellular activity was measured by an IL-2 luciferase reporter gene assay on a Jurkat human T cell line activated by anti-CD28 and anti-TCR antibodies; type: functional, cell-based

SMILES	IC50 [1] [nM]	IC50 (Jurkat) [nM]
CCCCCC(=O)N(Cc1ccc(CP(=O)(O)O)cc1)[C@H]1CC[C@H]2[C@@H]3CCc4cc(OCCC)ccc4[C@H]3CC[C@]12C	3200	3600
CCCCCC(=O)N(Cc1ccc(CP(=O)(O)O)cc1)[C@H]1CC[C@H]2[C@@H]3CCc4cc(OCCCOc5ccc6c(c5)CC[C@@H]5[C@@H]6CC[C@]6(C)[C@@H](N(Cc7ccc(CP(=O)(O)O)cc7)C(=O)CCCCC)CC[C@@H]56)ccc4[C@H]3CC[C@]12C	320	26500
CCCCCC(=O)N(Cc1ccc(C(F)(F)P(=O)(O)O)cc1)[C@H]1CC[C@H]2[C@@H]3CCc4cc(OCCCOc5ccc6c(c5)CC[C@@H]5[C@@H]6CC[C@]6(C)[C@@H](N(Cc7ccc(C(F)(F)P(=O)(O)O)cc7)C(=O)CCCCC)CC[C@@H]56)ccc4[C@H]3CC[C@]12C	250	1900
CCCCCC(=O)N(Cc1ccc(C(F)(F)P(=O)(O)O)cc1)[C@H]1CC[C@H]2[C@@H]3CCc4cc(OCCC)ccc4[C@H]3CC[C@]12C	1900	900
